# ChEMBL document CHEMBL1201862, “PubChem BioAssay data set” (2004)
#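 Protocol summary: plate cells (96-well), add compound at 5 concentrations, incubate 48 h, interpolate endpoints linearly. GI50 is the concentration that inhibits growth by half.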 Active and inactive are the calls of the source. Cut-off read from the data, not from the text of the source: active = GI50 up to about 1.1 µM and inactive = higher.
# Experiments:
# Assay in all cases: DTP human tumour cell line panel, 48 h
# DLD-1 = test system: DLD-1
# DMS-273 = test system: DMS-273
# HOP-18 = test system: HOP-18
# M19-MEL = test system: M19-MEL
# SNB-78 = test system: SNB-78
# BT-549 = test system: BT-549
# KM-20L2 = test system: KM-20L2
# XF498 = test system: XF498
# RXF 631 = test system: RXF 631
Compound,GI50 (DLD-1),GI50 (DMS-273),GI50 (M19-MEL),GI50 (SNB-78),GI50 (BT-549),GI50 (KM-20L2),also measured
N#CCCC[Si]12OCCN(CCO1)CCO2,> 100 µM (inactive),> 100 µM (inactive),> 100 µM (inactive),> 100 µM (inactive),–,–,GI50 (HOP-18): > 100 µM (inactive)
CCOc1ccc(N/C(Cl)=C(Cl)\C(=C(\Nc2ccc(OCC)cc2)n2nnc3ccccc32)[N+](=O)[O-])cc1,–,–,–,–,3.85 µM (inactive),–,–
Cc1cnc2nc(-c3cccc4ccccc34)cc(O)c2c1,–,–,–,–,0.0536 µM (active),–,–
CC(C)N(C(=O)c1ccc(NCc2cc(O)ccc2O)cc1)C(C)C,–,–,–,–,11.9 µM (inactive),–,–
O=C1C=C(NCC(c2ccccc2)c2ccccc2)C(=O)c2ncccc21,–,–,–,–,1.06 µM (active),–,–
CC(CN(C)C)/C(=N\Nc1ccccc1)c1ccccc1 (centres undefined),0.256 µM (active),0.324 µM (active),1.24 µM (inactive),6.1 µM (inactive),–,0.132 µM (active),GI50 (HOP-18): 10.7 µM (inactive)
COc1ccc(S(=O)(=O)N/N=C\c2cc([N+](=O)[O-])cc(I)c2O)c(OC)c1OC,28.8 µM (inactive),32.4 µM (inactive),31.7 µM (inactive),28.6 µM (inactive),–,36.2 µM (inactive),GI50 (HOP-18): 23.3 µM (inactive); GI50 (XF498): 20.7 µM (inactive)
C(=C\c1cccs1)/c1cccc(/C=C/c2cccs2)n1,–,–,–,–,22 µM (inactive),–,–
O=C(/C=C/c1ccc(O)c(O)c1)c1ccc(O)cc1O [BUTEIN],13.9 µM (inactive),10.6 µM (inactive),14 µM (inactive),20.8 µM (inactive),9.27 µM (inactive),17.1 µM (inactive),–
O=C(Nc1ccc(Cl)cc1Cl)C(=O)C(C(=O)c1ccc2ccccc2c1)C1OC(=O)c2ccccc21 (centres undefined),10.7 µM (inactive),–,12.6 µM (inactive),3.33 µM (inactive),–,–,–
Cc1cccc(NC(=O)CC#N)c1Cl,> 100 µM (inactive),> 100 µM (inactive),> 100 µM (inactive),> 100 µM (inactive),–,> 100 µM (inactive),GI50 (XF498): > 100 µM (inactive)
Cc1ccc([N+]2=NC(c3ccc([N+](=O)[O-])cc3)=NN(c3ccccc3)C2)cc1,25.7 µM (inactive),70.6 µM (inactive),> 100 µM (inactive),32.5 µM (inactive),–,> 100 µM (inactive),GI50 (XF498): > 100 µM (inactive)
Clc1ccccc1C(n1cc(Br)cn1)n1cc(Br)cn1,18.6 µM (inactive),17.8 µM (inactive),14.4 µM (inactive),> 100 µM (inactive),–,–,GI50 (RXF 631): > 10 µM (inactive); GI50 (XF498): 17.5 µM (inactive)
C=C(C)C1=CCC[C@]2(C1)N=C(OC)[C@@H](C(C)C)N=C2OC,–,–,–,–,> 100 µM (inactive),–,–
Nc1cccc(/C=C/C(=O)N2CCN(CCOC(c3ccccc3)c3ccccc3)CC2)c1,–,–,–,–,15 µM (inactive),–,–
O=C1Cc2ccccc2CCc2ccsc21,> 100 µM (inactive),> 100 µM (inactive),> 100 µM (inactive),> 100 µM (inactive),–,> 100 µM (inactive),GI50 (HOP-18): 70.8 µM (inactive); GI50 (XF498): > 100 µM (inactive)
O=C1C=CC(=O)C2C1Cc1ccccc1C2c1ccccc1 (centres undefined),56.2 µM (inactive),58.6 µM (inactive),30.1 µM (inactive),–,–,50 µM (inactive),GI50 (HOP-18): 53.6 µM (inactive)
Cn1c(=O)c2c(nc(NCCNc3nc4c(c(=O)n(C)c(=O)n4C)n3C)n2C)n(C)c1=O,–,–,–,–,> 100 µM (inactive),–,–
CC(=O)Nc1ccc(NNc2cc(=O)n(C)c(=O)[nH]2)cc1,–,–,–,–,13.1 µM (inactive),–,–
C=CC(OC(C)=O)c1ccc(OC(=O)C(C)C)c(OC)c1 (centres undefined),–,–,–,–,6.79 µM (inactive),–,–
CC(=O)Oc1ccc2cc(Oc3ccc(Cl)cc3)c(=O)oc2c1,–,–,–,–,25.9 µM (inactive),–,–

Compound,GI50 (DLD-1),GI50 (DMS-273),GI50 (M19-MEL),GI50 (SNB-78),GI50 (BT-549),GI50 (KM-20L2),also measured
COC1CC(C)C(OC)C2=CC(=O)C=C(NC(=O)/C(C)=C/C=C\C(C)C(OC(N)=O)/C(C)=C\C(C)C1OC)C2=O (centres undefined),0.804 µM (active),0.239 µM (active),0.441 µM (active),1.71 µM (inactive),–,0.202 µM (active),GI50 (HOP-18): 0.179 µM (active); GI50 (XF498): 0.681 µM (active)
CC(=O)Nc1ccc2c(c1)C(=O)c1ccccc1-2,> 100 µM (inactive),> 100 µM (inactive),> 100 µM (inactive),> 100 µM (inactive),–,> 100 µM (inactive),–
[N-]=[N+]=NC1OC(=O)C(Cl)=C1N=P(c1ccccc1)(c1ccccc1)c1ccccc1 (centres undefined),–,–,–,–,> 10 µM (inactive),–,–
CCN(CC)CCOC(=O)/C(=C/c1ccc(OC)cc1)c1cc(OC)c(OC)c(OC)c1,28.1 µM (inactive),4.29 µM (inactive),7.26 µM (inactive),9.98 µM (inactive),–,11.9 µM (inactive),GI50 (HOP-18): 30.4 µM (inactive); GI50 (RXF 631): 7.66 µM (inactive)
c1ccc(C2(c3cc4ccccc4[nH]3)OCCO2)nc1,–,–,–,–,> 100 µM (inactive),–,–
CC(C)NC(=O)OCc1c(COC(=O)NC(C)C)c(-c2ccc(Cl)c(Cl)c2)n2c1CCC2,> 51.5 µM (inactive),> 49.2 µM (inactive),33.7 µM (inactive),21.2 µM (inactive),> 100 µM (inactive),35.1 µM (inactive),GI50 (HOP-18): > 61.2 µM (inactive); GI50 (XF498): 45.7 µM (inactive)
Cn1c(=O)c2nc3nnc(C#N)c(N)n3c2n(C)c1=O,–,–,–,–,> 100 µM (inactive),–,–
COC(=O)C1=C(c2ccc3c(c2)OCO3)O[C@H](c2cc(OC)c(OC)c(OC)c2)[C@H]1COC(C)=O,7.19 µM (inactive),2.64 µM (inactive),2.45 µM (inactive),8.49 µM (inactive),–,2.14 µM (inactive),GI50 (HOP-18): 15.2 µM (inactive); GI50 (XF498): 4.25 µM (inactive)
Cc1cc(NS(=O)(=O)c2ccc(NC(=O)c3cccc4c(NNc5ccc(S(=O)(=O)N=C(N)N)cc5)c5ccccc5nc34)cc2)no1,–,–,–,–,57.8 µM (inactive),–,–
[O-][n+]1onc(-c2ccccc2)c1CN1CCOCC1,–,–,–,–,> 100 µM (inactive),–,–
CC(=O)N1c2ccccc2C2=NN(C)C(=N)SC21 (centres undefined),–,–,–,–,> 100 µM (inactive),–,–
CCCCCCc1cc2cc(C(=O)Nc3cccc(F)c3)c(=N)oc2cc1O,–,–,–,–,2.63 µM (inactive),–,–
COC1C(CO)OC(n2c3c(Cl)cccc3c3c4c(c5c6cccc(Cl)c6[nH]c5c32)C(=O)NC4=O)C(O)C1O (centres undefined),0.568 µM (active),0.208 µM (active),0.274 µM (active),0.631 µM (active),0.162 µM (active),0.586 µM (active),GI50 (RXF 631): 0.249 µM (active); GI50 (XF498): 0.27 µM (active)
CCN(CC)c1ccc2cc(-c3csc(C)n3)c(=O)oc2c1,–,–,–,–,28.2 µM (inactive),–,–
CC1(C)CCC2=C(O1)/C(=N\Nc1ccc(F)cc1)c1ccccc1C2=O,–,–,–,–,41.9 µM (inactive),–,–
CC(=O)Nc1ccc2c(c1)C(=O)c1cccc(F)c1-2,–,–,–,–,4.45 µM (inactive),–,–
CC(=O)O[C@]1(C)OC(=O)[C@@H](C)N1[N+](=O)[O-],> 100 µM (inactive),96.6 µM (inactive),> 100 µM (inactive),> 100 µM (inactive),–,> 100 µM (inactive),GI50 (HOP-18): > 100 µM (inactive); GI50 (XF498): < 0.01 µM (active)
CCC/C=C\C=C\C1(NS(=O)(=O)c2ccc(C)cc2)CCC(C(C)(C)C)CC1 (centres undefined),19.4 µM (inactive),13.4 µM (inactive),17.1 µM (inactive),19.1 µM (inactive),–,16.9 µM (inactive),GI50 (HOP-18): 14.9 µM (inactive); GI50 (XF498): 16.7 µM (inactive)
Cc1occc1C(=S)Nc1ccc(Cl)c(/C=N/OC(C)(C)C)c1,–,–,–,–,17.6 µM (inactive),–,–
CC(=O)OC1CCC2(C)C(CCC3C2CC(=O)C2(C)C3CC(N3CC3)C2C(C)=O)C1 (centres undefined),–,–,–,–,17.4 µM (inactive),–,–
Cc1cc(C)nc(NS(=O)(=O)c2ccc(NC(=O)c3cccc4c(N)c5ccccc5nc34)cc2)n1,> 100 µM (inactive),> 100 µM (inactive),> 100 µM (inactive),> 100 µM (inactive),–,88.7 µM (inactive),GI50 (XF498): > 100 µM (inactive)

Compound,GI50 (DLD-1),GI50 (DMS-273),GI50 (M19-MEL),GI50 (SNB-78),GI50 (BT-549),GI50 (KM-20L2),also measured
Cc1nn(C(=O)c2ccccc2O)c2c1C(c1ccc3ccccc3c1O)SC(=N)N2 (centres undefined),–,–,–,–,> 10 µM (inactive),–,–
O=C(Nc1ccc(Cl)cc1)NS(=O)(=O)c1ccc2c(c1)CCC2 [SULOFENUR],44.4 µM (inactive),32.4 µM (inactive),> 68.7 µM (inactive),> 47 µM (inactive),32.6 µM (inactive),37.8 µM (inactive),GI50 (HOP-18): 42.8 µM (inactive); GI50 (XF498): 34.1 µM (inactive)
Cc1cccnc1N/C=C1\C(=O)NC(=O)N(C)C1=O,–,–,–,–,> 100 µM (inactive),–,–
CC(=O)OCc1cncn1S(=O)(=O)c1ccc(C)cc1,–,–,–,–,> 83.4 µM (inactive),–,–
CCNc1nnc(-c2ccccc2Nc2ccccc2-c2nnc(NCC)s2)s1,–,–,–,–,19.6 µM (inactive),–,–
COC(=O)[C@]1(c2cc3ccccc3[nH]2)CC2CN(C(=O)OCc3ccccc3)C1CC2=O (some centres undefined),–,–,–,–,29.3 µM (inactive),–,–
Nc1nc(Cl)c(N)c(NCC2(CO)CC2)n1,–,–,–,–,> 100 µM (inactive),–,–
COc1cc(C=O)cc(/C=N/n2c3ccccc3c3ccccc32)c1O,–,–,–,–,2.94 µM (inactive),–,–
Cc1cc(Cc2cc(C)c(NC(=O)C(=O)C3CCC4=C(SC5C=CC=CC5N4)C3=O)c(C(C)C)c2)cc(C(C)C)c1NC(=O)C(=O)C1CCC2=C(SC3C=CC=CC3N2)C1=O (centres undefined),–,–,–,–,38.4 µM (inactive),–,–
CN(C)C(=S)Oc1ccc2ccc(=O)oc2c1,–,–,–,–,> 100 µM (inactive),–,–
C=C(C)CNC(=S)N(N)c1ccc2ccccc2c1,–,–,–,–,> 100 µM (inactive),–,–
COC1OC(COC(=O)NCCCCC(=O)C(F)(F)F)C(O)C(O)C1O (centres undefined),–,–,–,–,> 100 µM (inactive),–,–
Cn1cc(NC(=O)c2cc(NC(=O)CNC(=N)N)cn2C)cc1C(=O)NCCC(=N)N [NETROPSIN CHLORIDE],–,–,–,–,> 100 µM (inactive),–,–
COc1cc2cc(C(=O)N3CC(COS(C)(=O)=O)c4c3cc([N+](=O)[O-])c3ccccc43)[nH]c2c(OC)c1OC (centres undefined),–,–,–,–,> 31.6 µM (inactive),–,–
Cc1ccc(S(=O)(=O)CC(=O)CC(=O)C(=O)Nc2cccc(C(F)(F)F)c2)cc1,> 100 µM (inactive),> 100 µM (inactive),> 100 µM (inactive),> 100 µM (inactive),–,> 100 µM (inactive),GI50 (RXF 631): > 100 µM (inactive); GI50 (XF498): > 100 µM (inactive)
CCOC(=O)/C(C(=O)Nc1cccc(Cl)c1)=C(/N)N1CCOCC1,–,–,–,–,> 100 µM (inactive),–,–
Cc1c(/C=N/NC(=O)c2ccc(Cl)cc2)c(=O)n(-c2ccccc2)n1C,> 100 µM (inactive),> 100 µM (inactive),> 100 µM (inactive),> 100 µM (inactive),–,> 100 µM (inactive),GI50 (HOP-18): > 100 µM (inactive)
Cc1ccc(C2SC(=N)Nc3c2c(C)nn3C(=O)c2ccccc2O)cc1 (centres undefined),–,–,–,–,> 10 µM (inactive),–,–
O=S(=O)(O)c1cccc2cccc(/N=N/c3c(O)ccc4ccccc34)c12,–,–,–,–,> 100 µM (inactive),–,–
